Source: article PMC6469979, “A Dopamine-Responsive Signal Transduction Controls Transcription of Salmonella enterica Serovar Typhimurium Virulence Genes” (mBio, 2019)

Molecular target: EmrR-His6 (EmrR) (Salmonella enterica, UniProt Q7CPY9)
Assay: EMSA, release of EmrR-His6 from […]-labelled pagC-pagD promoter DNA
Conditions: dopamine 1, 10, 100 uM; 50 pmol EmrR-His6 in 20 ul; room temperature, 30 min; DNA-binding inhibition

Sequence of EmrR-His6 (EmrR) (Q7CPY9 entry or part of it): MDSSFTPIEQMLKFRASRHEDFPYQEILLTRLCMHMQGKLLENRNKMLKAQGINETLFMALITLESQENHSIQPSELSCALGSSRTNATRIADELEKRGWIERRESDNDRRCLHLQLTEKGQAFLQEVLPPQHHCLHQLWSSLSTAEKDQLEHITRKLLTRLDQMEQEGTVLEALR

## NCCc1ccc(O)c(O)c1 [dopamine]
  EMSA, release of EmrR-His6 from 32P-labelled pagC-pagD promoter DNA: dopamine alone was sufficient to reduce the affinity of a pure EmrR protein
